Assay results as given in patent publication US20260217652A1, “PHENYL-SUBSTITUTED HETEROARYL COMPOUND AND PHARMACEUTICAL COMPOSITION COMPRISING SAME, PREPARATION METHOD THEREFOR AND USE THEREOF” (SHANGHAI MEIYUE BIOTECH DEVELOPMENT CO., LTD., priority 2023, published 2026).
Read-outs that look alike come from different tables or passages of the source.

Columns and labels:
[1] = In vitro liver microsome stability, mouse; format: in vitro ADME; settings: liver microsomes, 0.5 mg/mL microsomes, 1 μM compound, NADPH, 37° C., read-out: Mouse liver microsomes Half-life T1/2
Protocol: The reference compound used in this experiment was Ketanserin, and the final concentration of microsomes in the experimental system was 0.5 mg/mL. The PBS buffer was a 50 mM K2HPO4 buffer. The concentration of the test compound was 1 μM. The microsomes were added to PBS, and the control/test compounds were respectively added to the corresponding reaction systems, mixed thoroughly, and pre-incubated in a 37° C. water bath for 5 minutes. The reaction was initiated by adding 20 mM NADPH solution under 37° C. water bath conditions (for the No NADPH samples, an equal volume of PBS solution was used as a substitute for the 20 mM NADPH solution). At the reaction time points of 0 min, 10 min, 30 mun, 60 min, and 90 min, 30 μL of reaction samples were taken from each reaction system (for the No NADPH samples, sampling was performed at 0 min and 90 min), and the reaction was immediately terminated by adding 300 μL of the internal standard acetonitrile solution. After centrifugation at 4000 rpm, the supernatant was taken and mixed thoroughly with an equal volume of pure water. The samples at each time point were analyzed by LC-MS/MS (AB Triple Quard 5500) to determine the compound content, and the T1/2 was calculated.

[2] = biological target: T1, p38 MAPK/ATF2 (Homo sapiens, UniProt Q16539); assay: In vitro activity assay of p38 MAPK/ATF2 (HTRF); format: biochemical; settings: p38α, Human ATF2 Protein, ATP; 35 min at 20° C.
T1 construct: purchased Carna Biosciences (p38α); Sino Biological (ATF2) 04-152; 11599-H20B
Protocol: The inhibitory effect of the compound on p38a-catalyzed ATF2 was evaluated by the HTRF method. The test compound was dissolved in DMSO to obtain a 10 mM stock solution and stored at −20° C. for future use. The initial concentration of the compound was 10 μM, with 0.25% DMSO, 5-fold serial dilution, 8 concentrations, and duplicate wells. The reaction buffer, consisting of 40 mM Tris pH 7.5, 20 mM MgCl2, 0.1 mg/mL BSA, and 50 μM DTT, was used to prepare 3.5×p38α (MAPK14, Carna Biosciences, 04-152) protein working solution, 3.5×Human ATF2 Protein (Sino Biological, 11599-H20B) working solution, and 3.5×ATP working solution. The reaction was terminated with 10 mM EDTA. The final 14 μL reaction system was performed in a 96-well plate (cisbio, 66PL96025), containing 0.29 ng/μL p38a, […] Human ATF2 Protein, and 25 µM ATP. After reacting at 20° C. for 35 min, the pre-prepared antibody solution (cibio, 63ADK015PEG, Phospho-ATF2 Eu Cryptate antibody, Phospho-ATF2 d2 antibody, diluted 40-fold with Detection buffer) was added to each well and incubated overnight at room temperature. The samples were then measured using a microplate reader (HTRF compatible reader). The concentration-effect curve was fitted using GraphPad Prism 8 software, and the compound concentration resulting in 50% inhibition, IC50, was calculated.

[3] = Pharmacokinetic evaluation in mice; format: in vivo; settings: mouse, plasma; for AUC(0-t): read-out: Area under curve AUC0-24 h; for half-life: read-out: Half-life T1/2 (converted)
Protocol: The compound was weighed and dissolved in a mixed solvent of DMAC: Solutol: PBS (1:1:8. After intravenous/gastric administration to mice, whole blood ([…]) was collected at 0.083, 0.25, 0.5, 1, 2, 4, 7, and 24 hours. The samples were anticoagulated with EDTA-K2, immediately centrifuged at 4000 rpm for 5 minutes at 4° C., and the supernatant was frozen in a −80° C. refrigerator. Plasma sample processing: The samples were precipitated with an internal standard-containing CH3CN precipitant, followed by centrifugation at 12700 rpm for 10 min. The supernatant was collected and analyzed by LC-MS/MS (AB Triple Quard 5500) to obtain the plasma drug concentration. The parameters were calculated using a non-compartmental model in Winnolin version 8.1.

[4] = intravenous injection group 1 mg/kg
[5] = po, intragastric administration group 5 mg/kg

half-life at 1 μM [1]: 1.79 h
IC50 [2]: 1850 nM
AUC(0-t) [3, 4]: 1360 ng·h/mL
clearance ([3]; intravenous injection group 1 mg/kg, read-out: Clearance CL (converted)): 12.3 mL/min/kg
half-life [3, 4]: 0.57 h
C0 ([3]; intravenous injection group 1 mg/kg, read-out: Initial concentration C0): 2150 ng/mL
Vd ([3]; intravenous injection group 1 mg/kg, read-out: Volume of distribution Vd): 0.47 L/kg
AUC(0-t) [3, 5]: 2070 ng·h/mL
bioavailability ([3]; po, intragastric administration group 5 mg/kg, read-out: Bioavailability F %): 30.5%
half-life [3, 5]: 3.24 h
Cmax ([3]; po, intragastric administration group 5 mg/kg, read-out: Maximum concentration Cmax): 979 ng/mL
Structure (SMILES): CNC(=O)c1cccc(-c2ncc(C)c(-n3c(C)cc(OCc4ncc(F)cc4F)c(Cl)c3=O)c2F)c1 [Compound 31-P1]
